We go through 8 molecules from US5430148A, “Antiproliferative quinazolines” (Agouron Pharmaceuticals, Inc., priority 1992, dated 1995).

Molecules are shown by their SMILES. Where two headings read alike, the source gives them in different places. Some results are limits rather than exact numbers.

The conditions of data set [1]: literature; cited from earlier work.
The subject of data set [2] is ovarian, liver and breast cancer. The settings on record: literature; cited from earlier work.
Data set [3] deals with L1210 murine leukemia cells. As to the kind of experiment: Inhibition of growth of tumor cells, L1210 murine leukemia (MTT). The class given is cell-based. The following applies: for IC50: 3 days continuous exposure, MTT, read-out: Cell Culture IC50, L1210. Here is the method: (§1) In Vitro Testing to Determine Inhibition of Growth of Tumor Cells
(§2) Growth was measured over 3 days (L1210) or 5 days (CCRF-CEM, GC3 /M TK^-) of continuous exposure to varying concentrations of each test compound, added 4 h. after initial cell plating, by the MTT-tetrazolium reduction assay of T. J. Mosmann [J. Immunol. Meth. […] Water insoluble derivatives were dissolved in DMSO and diluted to a final concentration of 0.5% solvent in cell cultures.

Data set [4] deals with human TS (thymidylate synthase) (Homo sapiens, UniProt P04818). In words: Inhibition constants against 5,10-methylenetetrahydrofolate for thymidylate synthase, human enzyme (tritium release). Type of data set: biochemical. The settings on record: cofactor as variable substrate, pH 7.6, 24° C. Here is the method:
(§3) Determination of Inhibition Constants Against 5,10-Methylenetetrahydrofolate for the Enzyme Thymidylate Synthase
(§4) Inhibition constants, Ki, slope and Ki, intercept [W. W. Cleland, Biochim. Biophys. […] The cofactor was present as the variable substrate under conditions of saturating radiolabelled 2'-deoxyuridine 5-monophosphate (dUMP). […] Assays of human TS also contained 1-5 μg/mL bovine serum albumin to stabilize the protein. Reactions were initiated by the addition of enzyme and were carried out for 5 minutes at 24° C., and then quenched by the addition of charcoal (15 mg in 0.1 mL H2 O). The quenched samples were centrifuged at 10,000 rpm for 12-15 min at […] to remove unreacted dUMP which had bound to the charcoal, and 0.1 mL of the supernatant was counted by liquid scintillation in the presence of 5 mL ecolume to determine the release of tritium label from the 5-position of the dUMP. […] Experimental results were analyzed by EZ-FIT, a nonlinear regression analysis program (Perrella Scientific, Springfield, Pa.) which was used to fit all data points simultaneously to a mixed noncompetitive inhibition scheme.

For a further data set, the system named is CCRF-CEM cells. As to the kind of experiment: Inhibition of growth of tumor cells, CCRF-CEM human lymphoblastic leukemia (MTT). Type of data set: cell-based. The settings on record: for IC50: 5 days continuous exposure, MTT, read-out: Cell Culture IC50, CCRF-CEM. Here is the method: as §1, §2
A further data set has as its system GC3/M TK- cells. As to the kind of experiment: Inhibition of growth of tumor cells, thymidine kinase-deficient human colon adenocarcinoma GC3/M TK- (MTT). Type of data set: cell-based. The following applies: for IC50: 5 days continuous exposure, MTT, read-out: Cell Culture IC50, GC3-M (TK-). The method, then: as §1, §2
Data set [5] addresses E. coli TS (thymidylate synthase) (Escherichia coli, UniProt P0A884). In words: Inhibition constants against 5,10-methylenetetrahydrofolate for thymidylate synthase, E. coli enzyme (tritium release). Type of data set: biochemical. Here is the method:
as §3, §4

The mark [6] stands for this setting: read-out: Ki Data, human thymidylate synthase.
The mark [7] stands for this setting: Ki Data, human thymidylate synthase.

Chain of human TS (thymidylate synthase) (P04818 2-313 limits assumed): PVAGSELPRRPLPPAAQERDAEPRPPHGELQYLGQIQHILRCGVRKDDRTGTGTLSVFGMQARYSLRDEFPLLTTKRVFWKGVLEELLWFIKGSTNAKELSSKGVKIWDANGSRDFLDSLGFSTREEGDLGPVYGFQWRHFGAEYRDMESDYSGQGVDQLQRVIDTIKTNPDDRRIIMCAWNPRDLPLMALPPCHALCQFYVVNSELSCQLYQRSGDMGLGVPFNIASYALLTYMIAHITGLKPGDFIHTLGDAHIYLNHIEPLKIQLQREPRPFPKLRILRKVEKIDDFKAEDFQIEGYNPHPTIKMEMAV
Chain of E. coli TS (thymidylate synthase) (P0A884 whole entry): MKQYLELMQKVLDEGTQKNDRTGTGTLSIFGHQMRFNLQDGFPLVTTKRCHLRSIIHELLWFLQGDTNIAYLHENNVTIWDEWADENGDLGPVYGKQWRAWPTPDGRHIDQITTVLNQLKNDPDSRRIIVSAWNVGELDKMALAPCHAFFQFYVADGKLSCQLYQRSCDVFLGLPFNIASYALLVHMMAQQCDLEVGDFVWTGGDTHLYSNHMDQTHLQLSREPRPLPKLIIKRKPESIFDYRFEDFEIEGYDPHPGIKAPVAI

On to `C#CCN(Cc1ccc2nc(N)[nH]c(=O)c2c1)c1ccc(C(=O)N[C@@H](CCC(=O)O)C(=O)O)cc1` [10-propargyl-5,8-dideazafolic acid], for which the toxicities result in data set [1] is “troublesome hepatic and renal toxicities”. In addition, the activity against cancer result in data set [2] is “activity against ovarian, liver and breast cancer”.
Regarding `Cc1nc2cccc(Sc3ccncc3)c2c(=O)[nH]1` [Compound 7A], the “growth inhibition, L1210” value in data set [3] (@ 20 um, 3 days) is reported as 68%. Further, the Ki is 2.1 ± 0.5 µM in data set [4] (setting [6]) and 38 ± 5 µM in data set [5]. Moreover, the IC50 is > 26.9 µM with CCRF-CEM cells (Homo sapiens, CCRF-CEM, 120 h) and > 26.9 µM in the data set with GC3/M TK- cells (Homo sapiens, GC3/MTK-, 120 h). In the data set with CCRF-CEM cells (Homo sapiens, CCRF-CEM, 120 h, @ > 26.9 μM, 5 days), this molecule displayed an inhibition at 26.9 µM of 37%. Besides, the “growth inhibition, GC3-M (TK-)” value with GC3/M TK- cells (@ > 26.9 μM, 5 days) is reported as “none”.
With `Cc1nc2cccc(Cn3cncc3-c3ccccc3)c2c(=O)[nH]1` [Compound 31A], the IC50 in data set [3] (Mus musculus, L1210, 72 h) was 48 µM; with CCRF-CEM cells (Homo sapiens, CCRF-CEM, 120 h), > 50 µM; in the data set on GC3/M TK- cells (Homo sapiens, GC3/MTK-, 120 h), > 50 µM. Also, the Ki in data set [4] (setting [6]) was found to be 51 ± 2.2 µM; in data set [5], 21 ± 6 µM.
`COc1ccc(-c2cncn2Cc2cccc3nc(C)[nH]c(=O)c23)cc1` [Compound 33A]: the IC50 in data set [3] (Mus musculus, L1210, 72 h) was 25 µM; in the data set on CCRF-CEM cells (Homo sapiens, CCRF-CEM, 120 h), 18 µM; in the data set with GC3/M TK- cells (Homo sapiens, GC3/MTK-, 120 h), > 25 µM. The inhibition constant Ki in data set [4] (setting [6]) was 47 ± 17 µM; in data set [5], 36 ± 1.5 µM. In the data set with GC3/M TK- cells (Homo sapiens, GC3/MTK-, 120 h, @ > 25 μM, 5 days), this molecule gave an inhibition at 25 µM of 20%.
For `Cc1nc2cccc(Sc3cc[n+](Cc4ccccc4)cc3)c2c(=O)[nH]1` [Compound 22A], the IC50 was > 2.5 µM in data set [3] (Mus musculus, L1210, 72 h); > 2.5 µM with CCRF-CEM cells (Homo sapiens, CCRF-CEM, 120 h); > 2.5 µM in the data set with GC3/M TK- cells (Homo sapiens, GC3/MTK-, 120 h). This molecule also came in with an inhibition at 2.5 µM in data set [3] (Mus musculus, L1210, 72 h, @ > 2.5 μM, 3 days) of 4%. In addition, the inhibition constant Ki came out at 1.1 ± 0.3 µM in data set [4] (setting [6]) and 9.3 ± 1.6 µM in data set [5]. Further, the “growth inhibition, CCRF-CEM” value in the data set with CCRF-CEM cells (@ > 2.5 μM, 5 days) is “none”. For the same molecule, in the data set with GC3/M TK- cells (@ > 2.5 μM, 5 days), the “growth inhibition, GC3-M (TK-)” value is on record as “none”.
Take `Cc1nc2ccc(C)c(Sc3ccncc3)c2c(=O)[nH]1` [Compound 8A, 3,4-Dihydro-2,6-dimethyl-4-oxo-5-(4-pyridylthio)-quinazoline]: the IC50 in data set [3] (Mus musculus, L1210, 72 h) was found to be 3.5 µM; in the data set on CCRF-CEM cells (Homo sapiens, CCRF-CEM, 120 h), 5.2 µM; in the data set with GC3/M TK- cells (Homo sapiens, GC3/MTK-, 120 h) it was 6 µM. The Ki in data set [4] (setting [7]) is 0.062 µM; in data set [5], 0.89 ± 0.28 µM.
In the case of `Cc1nc2cccc(C(O)(c3ccccc3)c3ccccc3)c2c(=O)[nH]1` [Compound 6A, 3,4-Dihydro-5-(α-diphenyl-hydroxymethyl)-2-methyl-4-oxo-quinazoline], the 50% inhibitory concentration (IC50) in data set [3] (Mus musculus, L1210, 72 h) was 2.3 µM; in the data set with CCRF-CEM cells (Homo sapiens, CCRF-CEM, 120 h), 4 µM; with GC3/M TK- cells (Homo sapiens, GC3/MTK-, 120 h) it was > 4.98 µM. Besides, the Ki in data set [4] (setting [6]) and in data set [5] was > 10 µM throughout.
As for `Cc1nc2ccc(C)c(Sc3ccc([N+](=O)[O-])cc3)c2c(=O)[nH]1` [Compound 10A], the IC50 in data set [3] (Mus musculus, L1210, 72 h) is 3 µM; in the data set on CCRF-CEM cells (Homo sapiens, CCRF-CEM, 120 h) it was 2.9 µM; with GC3/M TK- cells (Homo sapiens, GC3/MTK-, 120 h) it was > 4 µM. In addition, the figures for the Ki in data set [4] (setting [7]) and in data set [5] were 0.083 ± 0.011 µM and 0.75 ± 0.08 µM, respectively.

What is called Ki is the dissociation constant of the complex between target and ligand, obtained from inhibition or displacement. One may read the IC50 as the midpoint of a concentration-inhibition curve. The inhibition is the change of the read-out against control, counted positive when it falls. High values mean a response far below the control, low ones a response near the control.
